Several values for one entry are separate records, joined by “and”; a condition that tells them apart may be missing. Identical values can stand only once. Entries after “also recorded” stand apart in the source; their conditions may differ.
How the values were obtained:
Y652A hERG = target: T1, Y652A hERG (Homo sapiens, UniProt Q12809, Y652A); test: Whole-cell patch-clamp recording of IhERG, S6 helix mutant Y652A; assay type: cell-based
T1 construct: expressed in transfected cells
Description: (§1) A HEK293 cell line stably expressing WT hERG channels was kindly donated by Prof. Craig January ([51]). The pore helix (T623A and S624A) and S6 helix (F656A) alanine mutants, attenuated-inactivation mutants (N588K and S620T), and S5 mutant F557L were all generated and used as described previously ([3], [18], [41], [52]). The HEK293 cell line stably expressing the hERG S6 helix mutant Y652A was used in this study as described previously ([52]).
(§2) HEK293 cells stably or transiently expressing hERG constructs were maintained as described previously ([18], [19], [52]). Cells were plated in 40-mm Petri dishes at least 48 h before transfection and incubated at 37 °C with 5% CO2. Cells were transfected either with Lipofectamine^TM 2000 (Invitrogen) or Lipofectamine LTX (Invitrogen) following the manufacturer's instructions. The amount of hERG construct DNA that was transfected varied between 0.1 and 1.0 μg depending on the level of functional expression. 0.15 μg of CD8 was cotransfected as a transfection marker, and successfully transfected cells were identified using Dynabeads® (Invitrogen). Cells were plated on sterilized glass shards in 40-mm Petri dishes and incubated at 37 °C (5% CO2) at least 24 h before electrophysiological recording; this was to allow time for cell recovery and hERG construct expression.
(§3) For IhERG recordings, glass shards containing plated cells were placed in a recording chamber mounted on an inverted microscope (Nikon Diaphot). The cells were superfused continuously with Tyrode's solution containing 140 mM NaCl, 4 mM KCl, 2.5 mM CaCl2, 1 mM MgCl2, 10 mM glucose, 5 mM HEPES (titrated to pH 7.4 with NaOH). As described previously ([18], [19]), a modified “high-K^+” version of this solution (containing 94 mM KCl and 50 mM NaCl) was used to obtain recordable currents from comparatively poorly expressed hERG mutants (T623A and F656A). Patch pipettes (Schott number 8250 glass, A-M Systems Inc.) were pulled (Narishige, PP 830) and polished (Narishige, MF 83) to final resistance values between 2 and 4 megaohms. […]

F656A hERG = target: T2, F656A hERG (Homo sapiens, UniProt Q12809, F656A); test: Whole-cell patch-clamp recording of IhERG, S6 helix mutant F656A; assay type: cell-based
T2 construct: expressed in transfected cells; host or cells: HEK293
Description: as §1, §2, §3

N588K hERG = target: T3, N588K hERG (Homo sapiens, UniProt Q12809, N588K); test: Whole-cell patch-clamp recording of IhERG, attenuated-inactivation mutant N588K; assay type: cell-based
T3 construct: expressed in transfected cells; host or cells: HEK293
Description: as §1, §2, §3

F557L hERG = target: T4, F557L hERG (Homo sapiens, UniProt Q12809, F557L); test: Whole-cell patch-clamp recording of IhERG, S5 mutant F557L; assay type: cell-based
T4 construct: expressed in transfected cells; host or cells: HEK293
Description: as §1, §2
The F557L hERG mutation was generated using the Quik Change® site-directed mutagenesis kit (Stratagene, La Jolla, CA). In brief, a pair of complementary oligonucleotide primers containing the mutation (forward primer sequence, 5′[…]-3′; reverse primer sequence, 5′[…]-3′; synthesized by Sigma-Genosys, Haverhill, UK) was used in a PCR (95 °C for 1 min, 60 °C for 1 min, and 68 °C for 16 min for 18 cycles) by using hERG in a modified pcDNA3.0 vector as a DNA template. A DpnI digest of the PCR mixture was then performed for 1 h at 37 °C. Competent DH5α Escherichia coli (Invitrogen) were transformed using standard procedures. The mutation was confirmed by sequencing of the entire ORF (Eurofins MWG Operon, Ebersberg, Germany). […]

WT hERG [1] = target: T5, WT hERG (Homo sapiens, UniProt Q12809); test: Whole-cell patch-clamp recording of IhERG, WT hERG in HEK293 cells at 37 °C; assay type: cell-based
T5 construct: expressed in transfected cells
Description: as §1, §2
For IhERG recordings, glass shards containing plated cells were placed in a recording chamber mounted on an inverted microscope (Nikon Diaphot). The cells were superfused continuously with Tyrode's solution containing 140 mM NaCl, 4 mM KCl, 2.5 mM CaCl2, 1 mM MgCl2, 10 mM glucose, 5 mM HEPES (titrated to pH 7.4 with NaOH). As described previously ([18], [19]), a modified “high-K^+” version of this solution (containing 94 mM KCl and 50 mM NaCl) was used to obtain recordable currents from comparatively poorly expressed hERG mutants (T623A and F656A). Patch pipettes (Schott number 8250 glass, A-M Systems Inc.) were pulled (Narishige, PP 830) and polished (Narishige, MF 83) to final resistance values between 2 and 4 megaohms. The patch pipettes were filled with intracellular solutio, containing 130 mM KCl, 1 mM MgCl2, 5 mM EGTA, 5 mM MgATP, and 10 mM HEPES (titrated to pH 7.2 with KOH). Pipette resistance compensation was between 70 and 80%. Cavalli-2 ([30]), which was synthesized by Ascent Scientific (Abcam Ltd.), was dissolved in DMSO to produce 100 μM, 1 mM, and 10 mM stock solutions. Stock solutions were diluted either in standard or high-K^+ Tyrode's solution as appropriate to obtain final concentrations stated under “Results.” Solutions were preheated to 37 ± 1 °C and applied to single cells using a homemade, multibarreled superfusion system, enabling rapid superfusate exchange (<1 s) ([53]). Thus, measurements of IhERG were made at 37 ± 1 °C as described previously ([18], [19], [52], [54], [55]).
All IhERG recordings were made using an Axopatch 200B amplifier (Axon Instruments, now Molecular Devices) and a CV203BU head stage. Data were acquired using a Digidata 1320 interface (Axon Instruments, now Molecular Devices). Data digitization rates were between 10 and 25 kHz during all voltage protocols, and an appropriate bandwidth between 2 and 10 kHz was set on the amplifier. For WT hERG and most of the mutant channels studied, activating voltage commands to +20 mV were used with tail currents observed at either […] (for most mutants) or −120 mV (for T623A and F656A) ([18][–][20], [33]). The level of block of WT and mutant IhERG by Cavalli-2 was attained by repetitive protocol application for 5 min, and fractional inhibition of IhERG tails was measured. […]

WT hERG [2] = target: T5, WT hERG; test: as above; assay type: cell-based; remark: listed apart in the source
hERG = test system: hERG; design: method as in earlier work; conditions: HEK cells at room temperature; ref 30 (Cavalli et al.); cited from earlier work
S620T hERG = target: T6, S620T hERG (Homo sapiens, UniProt Q12809, S620T); test: Whole-cell patch-clamp recording of IhERG, attenuated-inactivation mutant S620T; assay type: cell-based
T6 construct: expressed in transfected cells; host or cells: HEK293
Description: as §1
as §2, with “construct expression. […]” for “construct expression.”

T623A hERG = target: T7, T623A hERG (Homo sapiens, UniProt Q12809, T623A); test: Whole-cell patch-clamp recording of IhERG, pore helix mutant T623A; assay type: cell-based
T7 construct: expressed in transfected cells; host or cells: HEK293
Description: as §1
as §2, with “construct expression. […]” for “construct expression.”

S624A hERG = target: T8, S624A hERG (Homo sapiens, UniProt Q12809, S624A); test: Whole-cell patch-clamp recording of IhERG, pore helix mutant S624A; assay type: cell-based
T8 construct: expressed in transfected cells; host or cells: HEK293
Description: as §1
as §2, with “construct expression. […]” for “construct expression.”

T3 sequence (Q12809 whole entry N588K): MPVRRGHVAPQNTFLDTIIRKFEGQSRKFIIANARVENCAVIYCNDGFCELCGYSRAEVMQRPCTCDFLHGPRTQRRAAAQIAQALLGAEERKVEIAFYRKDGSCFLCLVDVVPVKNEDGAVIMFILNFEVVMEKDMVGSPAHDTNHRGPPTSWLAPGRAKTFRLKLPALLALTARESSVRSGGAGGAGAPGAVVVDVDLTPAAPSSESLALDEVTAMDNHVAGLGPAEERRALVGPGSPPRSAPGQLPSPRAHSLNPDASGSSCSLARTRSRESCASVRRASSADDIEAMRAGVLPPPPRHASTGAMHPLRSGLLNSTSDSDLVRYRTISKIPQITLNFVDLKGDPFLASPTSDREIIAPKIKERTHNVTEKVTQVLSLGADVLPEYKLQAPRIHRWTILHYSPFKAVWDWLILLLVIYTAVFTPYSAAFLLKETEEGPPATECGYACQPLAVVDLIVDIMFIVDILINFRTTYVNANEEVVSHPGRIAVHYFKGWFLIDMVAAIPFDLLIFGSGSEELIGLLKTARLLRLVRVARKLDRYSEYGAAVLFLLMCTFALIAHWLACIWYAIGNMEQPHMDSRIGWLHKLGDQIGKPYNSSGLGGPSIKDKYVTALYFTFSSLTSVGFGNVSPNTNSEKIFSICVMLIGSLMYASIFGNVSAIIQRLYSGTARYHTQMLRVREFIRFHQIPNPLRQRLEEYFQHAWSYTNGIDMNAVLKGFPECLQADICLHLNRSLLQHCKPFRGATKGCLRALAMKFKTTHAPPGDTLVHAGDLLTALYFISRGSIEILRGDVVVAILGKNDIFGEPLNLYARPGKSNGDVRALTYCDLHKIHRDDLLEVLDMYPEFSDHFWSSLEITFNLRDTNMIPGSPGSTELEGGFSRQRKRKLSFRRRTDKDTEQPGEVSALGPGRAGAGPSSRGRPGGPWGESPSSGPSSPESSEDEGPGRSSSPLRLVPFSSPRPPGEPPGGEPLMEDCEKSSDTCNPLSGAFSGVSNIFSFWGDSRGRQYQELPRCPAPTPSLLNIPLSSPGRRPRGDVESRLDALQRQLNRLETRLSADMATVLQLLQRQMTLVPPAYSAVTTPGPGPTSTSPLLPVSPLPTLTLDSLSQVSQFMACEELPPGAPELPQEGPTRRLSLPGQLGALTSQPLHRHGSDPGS
T6 sequence (Q12809 whole entry S620T): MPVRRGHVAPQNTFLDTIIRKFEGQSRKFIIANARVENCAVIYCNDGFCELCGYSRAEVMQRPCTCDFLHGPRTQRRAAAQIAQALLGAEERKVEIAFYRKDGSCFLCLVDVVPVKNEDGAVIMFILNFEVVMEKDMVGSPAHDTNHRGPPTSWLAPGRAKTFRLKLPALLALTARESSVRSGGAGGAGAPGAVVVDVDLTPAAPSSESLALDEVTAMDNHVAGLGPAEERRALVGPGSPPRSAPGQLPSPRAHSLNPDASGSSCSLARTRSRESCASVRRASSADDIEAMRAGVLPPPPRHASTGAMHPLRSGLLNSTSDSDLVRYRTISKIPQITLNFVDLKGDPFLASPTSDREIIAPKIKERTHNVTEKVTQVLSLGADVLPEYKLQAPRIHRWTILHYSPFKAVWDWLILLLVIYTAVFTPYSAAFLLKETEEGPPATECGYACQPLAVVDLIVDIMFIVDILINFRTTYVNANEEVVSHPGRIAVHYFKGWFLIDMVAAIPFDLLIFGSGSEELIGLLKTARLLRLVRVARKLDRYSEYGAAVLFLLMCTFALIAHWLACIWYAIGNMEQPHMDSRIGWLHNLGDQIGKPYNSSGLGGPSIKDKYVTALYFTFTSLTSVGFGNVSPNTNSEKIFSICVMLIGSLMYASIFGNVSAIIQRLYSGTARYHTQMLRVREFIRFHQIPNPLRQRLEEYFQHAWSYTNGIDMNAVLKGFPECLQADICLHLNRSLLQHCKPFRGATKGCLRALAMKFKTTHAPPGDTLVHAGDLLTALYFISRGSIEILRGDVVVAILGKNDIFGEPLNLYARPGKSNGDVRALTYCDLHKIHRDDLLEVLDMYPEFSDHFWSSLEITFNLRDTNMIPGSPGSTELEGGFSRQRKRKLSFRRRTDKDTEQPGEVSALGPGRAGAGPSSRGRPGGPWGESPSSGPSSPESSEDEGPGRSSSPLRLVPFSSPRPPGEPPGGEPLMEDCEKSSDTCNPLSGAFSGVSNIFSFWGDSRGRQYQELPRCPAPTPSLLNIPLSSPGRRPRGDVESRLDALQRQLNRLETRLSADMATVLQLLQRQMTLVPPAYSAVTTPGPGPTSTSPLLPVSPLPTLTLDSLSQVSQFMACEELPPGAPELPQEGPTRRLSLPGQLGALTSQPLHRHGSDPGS
T8 sequence (Q12809 whole entry S624A): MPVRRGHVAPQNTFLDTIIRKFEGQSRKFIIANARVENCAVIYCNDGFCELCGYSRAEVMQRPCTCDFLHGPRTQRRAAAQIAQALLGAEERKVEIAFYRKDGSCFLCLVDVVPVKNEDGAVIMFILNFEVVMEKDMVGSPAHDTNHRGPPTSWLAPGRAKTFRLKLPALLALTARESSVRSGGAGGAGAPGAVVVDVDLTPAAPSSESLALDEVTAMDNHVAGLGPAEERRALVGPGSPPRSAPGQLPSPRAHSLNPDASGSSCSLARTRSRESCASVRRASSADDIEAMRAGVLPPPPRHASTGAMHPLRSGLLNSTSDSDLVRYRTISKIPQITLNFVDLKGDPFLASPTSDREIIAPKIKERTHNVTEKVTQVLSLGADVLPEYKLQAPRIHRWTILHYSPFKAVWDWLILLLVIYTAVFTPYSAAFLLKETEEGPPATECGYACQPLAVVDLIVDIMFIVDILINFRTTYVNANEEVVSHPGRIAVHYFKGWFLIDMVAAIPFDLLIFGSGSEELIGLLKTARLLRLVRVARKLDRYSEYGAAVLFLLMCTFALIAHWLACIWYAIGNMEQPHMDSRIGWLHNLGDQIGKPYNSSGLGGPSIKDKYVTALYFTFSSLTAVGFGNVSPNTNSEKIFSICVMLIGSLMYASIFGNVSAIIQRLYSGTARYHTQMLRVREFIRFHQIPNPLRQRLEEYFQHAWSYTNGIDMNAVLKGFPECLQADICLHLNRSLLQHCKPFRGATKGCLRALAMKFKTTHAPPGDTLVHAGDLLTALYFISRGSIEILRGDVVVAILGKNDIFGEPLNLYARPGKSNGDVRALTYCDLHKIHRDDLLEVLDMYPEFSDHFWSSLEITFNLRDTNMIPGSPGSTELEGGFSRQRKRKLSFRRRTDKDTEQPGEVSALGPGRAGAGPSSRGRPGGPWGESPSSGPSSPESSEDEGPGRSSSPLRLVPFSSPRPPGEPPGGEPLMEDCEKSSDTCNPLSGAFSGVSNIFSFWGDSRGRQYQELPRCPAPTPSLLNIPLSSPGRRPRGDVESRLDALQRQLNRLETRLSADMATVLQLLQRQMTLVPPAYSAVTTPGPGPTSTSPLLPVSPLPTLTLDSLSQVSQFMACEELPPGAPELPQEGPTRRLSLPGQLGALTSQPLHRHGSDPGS
T7 sequence (Q12809 whole entry T623A): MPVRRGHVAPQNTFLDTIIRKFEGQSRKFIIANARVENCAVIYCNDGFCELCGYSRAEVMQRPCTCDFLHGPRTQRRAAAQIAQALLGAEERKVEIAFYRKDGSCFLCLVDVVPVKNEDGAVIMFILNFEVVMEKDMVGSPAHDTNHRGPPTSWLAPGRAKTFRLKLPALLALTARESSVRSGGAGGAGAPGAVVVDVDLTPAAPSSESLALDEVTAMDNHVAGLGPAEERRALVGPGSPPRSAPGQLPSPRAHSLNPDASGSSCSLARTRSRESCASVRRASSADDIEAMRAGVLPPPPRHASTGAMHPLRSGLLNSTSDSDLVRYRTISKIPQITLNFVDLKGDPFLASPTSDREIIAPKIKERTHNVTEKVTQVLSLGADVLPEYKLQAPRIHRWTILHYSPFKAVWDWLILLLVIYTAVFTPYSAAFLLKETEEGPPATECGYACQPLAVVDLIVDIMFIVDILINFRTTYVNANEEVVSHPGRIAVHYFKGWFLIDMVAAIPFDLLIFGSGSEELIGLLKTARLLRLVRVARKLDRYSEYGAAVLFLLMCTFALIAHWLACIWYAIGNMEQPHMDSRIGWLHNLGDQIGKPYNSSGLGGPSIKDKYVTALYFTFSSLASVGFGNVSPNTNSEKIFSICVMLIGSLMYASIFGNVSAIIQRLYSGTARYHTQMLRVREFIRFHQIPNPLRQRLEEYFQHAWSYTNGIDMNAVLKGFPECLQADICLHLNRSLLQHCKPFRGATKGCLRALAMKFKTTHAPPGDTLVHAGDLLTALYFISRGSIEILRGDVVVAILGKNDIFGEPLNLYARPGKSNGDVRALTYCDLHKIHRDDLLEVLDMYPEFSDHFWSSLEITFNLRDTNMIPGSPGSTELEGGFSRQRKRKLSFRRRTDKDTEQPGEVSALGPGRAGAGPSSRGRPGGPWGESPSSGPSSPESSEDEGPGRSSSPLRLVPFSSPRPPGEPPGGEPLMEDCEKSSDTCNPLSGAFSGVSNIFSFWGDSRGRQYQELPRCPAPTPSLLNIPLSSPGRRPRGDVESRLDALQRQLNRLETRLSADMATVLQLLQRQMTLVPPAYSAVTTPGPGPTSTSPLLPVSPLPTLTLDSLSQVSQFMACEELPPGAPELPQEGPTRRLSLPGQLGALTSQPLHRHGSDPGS

## c1ccc(CCCNCCC(c2ccccc2)c2ccccc2)cc1 [Cavalli-2]
Y652A hERG; 300 nM, −20 to +40 mV
  voltage dependence of Y652A IhERG tail inhibition: eliminated voltage dependence of inhibition; also recorded: no significant voltage dependence
Y652A hERG; Y652A vs WT-1
  Potency reduction compared with its WT-control (fold WT IC50): 17 fold and 16.7 fold
Y652A hERG; human, HEK293 cells stably expressing Y652A hERG, pH 7.4, Y652A, −40 mV, 4 mM K+
  IC50 at 5 min: 594 nM
F656A hERG; 1 μM, −120 mV, high K+
  reduction of F656A IhERG: ~40%
F656A hERG; F656A vs WT-2
  Potency reduction compared with its WT-control (fold WT IC50): 75 fold and 75.1 fold
F656A hERG; human, HEK293 cells expressing F656A hERG, pH 7.4, F656A, −120 mV, 94 mM K+
  IC50 at 5 min: 1320 nM
N588K hERG; N588K vs WT-1
  Potency reduction compared with its WT-control (fold WT IC50): 15 fold and 15.3 fold
N588K hERG; human, HEK293 cells expressing N588K hERG, pH 7.4, 300 nM
  inhibition at 5 min, 0.3 µM: < 50%
N588K hERG; human, HEK293 cells expressing N588K hERG, pH 7.4, N588K, −40 mV, 4 mM K+
  IC50 at 5 min: 544 nM
F557L hERG; 300 nM, −20 to +40 mV
  voltage dependence of F557L IhERG tail inhibition: eliminated voltage dependence of inhibition; also recorded: no significant voltage dependence; also recorded: nearly abolished
F557L hERG; F557L vs WT-1
  Potency reduction compared with its WT-control (fold WT IC50): 10 fold and 9.5 fold
F557L hERG; human, HEK293 cells expressing F557L hERG, pH 7.4, F557L, −40 mV, 4 mM K+
  IC50 at 5 min: 339 nM
WT hERG [1]; 30 nM
  k (slope) of IhERG activation in the presence of compound: 5.0 ± 1.5 and 5.03 ± 1.50 and 4.8 ± 1.1
  k of IhERG inactivation in the presence of compound: 19.9 ± 1.1 and 20.1 ± 1.3
WT hERG [1]; 30 nM vs control
  ΔV0.5 of activation: -4.68 mV
WT hERG [1]; 30 nM, +40 mV after 2-ms step to −120 mV, control 1.4 ± 0.2 ms
  inactivation τ in the presence of compound: 1.6 ± 0.5 ms
WT hERG [1]; 30 nM, test depolarizations −30 to +60 mV
  voltage dependence of fractional inhibition of WT IhERG: voltage-dependent over the tested range
WT hERG [1]; 30 nM, three-step protocol 0/+40/0 mV
  fractional inhibition of IhERG during +40-mV phase vs 0-mV phases: significantly reduced
WT hERG [1]; KD at +60 mV vs 0 mV
  δ value (Woodhull analysis): 0.2
WT hERG [1]; human, HEK293 cells stably expressing WT hERG, pH 7.4, WT-2, inward IhERG tails, voltage step −120 mV, 94 mM K+
  IC50 at 5 min: 17.5 nM
WT hERG [1]; human, HEK293 cells stably expressing WT hERG, pH 7.4, washout after 30 nM, five cells, read-out: recovery on washout, of control amplitude
  recovery at 30 nM: 59.5 ± 4.1%
WT hERG [2]; 30 nM, standard protocol, tails at −40 mV, 4 mM K+
  IhERG tail inhibition: 50.2 ± 2.0%
WT hERG [2]; 30 nM, tails at −40 mV
  change in t½ of IhERG deactivation: No significant change
WT hERG [2]; WT-1, IhERG tails, voltage step −40 mV, 4 mM K+, HEK293, 37 °C
  IC50: 35.6 nM
WT hERG [2]; human, HEK293 cells stably expressing WT hERG, pH 7.4, 30 nM, AP voltage clamp, read-out: inhibition of peak IhERG during ventricular action potential waveform
  inhibition at 5 min, 0.03 µM: 42.3 ± 6.7%
WT hERG [2]; human, HEK293 cells stably expressing WT hERG, pH 7.4, 30 nM, standard protocol, tails at −40 mV, 4 mM K+, read-out: IhERG tail inhibition
  inhibition at 5 min, 30 nM: ~50%
WT hERG [2]; human, HEK293 cells stably expressing WT hERG, pH 7.4, WT-1, IhERG tails, voltage step −40 mV, 4 mM K+, HEK293, 37 °C
  IC50 at 5 min: 36 nM
hERG
  IC50: 17 nM
S620T hERG; S620T vs WT-1
  Potency reduction compared with its WT-control (fold WT IC50): 54 fold and 53.8 fold
S620T hERG; human, HEK293 cells expressing S620T hERG, pH 7.4, S620T, −40 mV, 4 mM K+
  IC50 at 5 min: 1920 nM
T623A hERG; T623A vs WT-2
  Potency reduction compared with its WT-control (fold WT IC50): 16 fold and 16.1 fold
T623A hERG; human, HEK293 cells expressing T623A hERG, pH 7.4, T623A, −120 mV, 94 mM K+
  IC50 at 5 min: 281 nM
S624A hERG; S624A vs WT-1
  Potency reduction compared with its WT-control (fold WT IC50): 7 fold and 7.4 fold
S624A hERG; human, HEK293 cells expressing S624A hERG, pH 7.4, S624A, −40 mV, 4 mM K+
  IC50 at 5 min: 262 nM
